One compound from patent US6469052B2, “Compounds for the photodecontamination of pathogens in blood” (Cerus Corporation, priority 1993, dated 2002) can be followed below.

The subject of series [1] is Salmonella tester strains TA97a, TA98, TA100, TA102, TA1537 and TA1538. The experiment in a line: Ames assay, overall assessment over the tester strains. The following applies: strains tested: TA100 and TA1538, ±S9, 5 and 10 μg/plate. The source says: (§1) The second property that is important in testing a compound for use in methods of the present invention is mutagenicity. The most widely used mutagen/carcinogen screening assay is the Ames test. This assay is described by D. M. Maron and B. N. Ames in Mutation Research 113: 173 ( 1983) and a specific screen is described in detail in Example 17, below. The Ames test utilizes several unique strains of Salmonella typhimurium that are histidine- dependent for growth and that lack the usual DNA repair enzymes. The frequency of normal mutations that render the bacteria independent of histidine (i.e., the frequency of spontaneous revertants) is low. The test allows one to evaluate the impact of a compound on this revertant frequency.
(§2) In this example the compounds of the present invention are tested for their dark mutagenicity using an Ames assay. The procedures used for the Salmonella mutagenicity test as described in detail by Maron and Ames were followed exactly. Maron, D. M. and B. N. Ames, Mutation Research 113: 173 ( 1983). A brief description for each procedure is given here. The tester strains TA97a, TA98, TA100, TA102, TA1537 and TA1538 were obtained from Dr. Ames. TA97a, TA98, TA1537 and TA1538 are frameshift tester strains. TA100 and TA102 are base-substitution tester strains. Upon receipt each strain was cultured under a variety of conditions to confirm the genotypes specific to the strains.
(§3) The first tests done with the strains were to determine the range of spontaneous reversion for each of the strains. With each mutagenicity experiment the spontaneous reversion of the tester strains to histidine independence was measured and expressed as the number of spontaneous revertants per plate. This served as the background controls.
For all experiments, the pre-incubation procedure was used. In this procedure one vial of each tester strain was thawed and 20 μL of this culture was added to 6 mL of Oxoid Nutrient Broth #2. This solution was allowed to shake for 10 hours at 37° C. In the pre-incubation procedure, 0.1 mL of this overnight culture was added to each of the required number of sterile test tubes. To half of the tubes 0.5 mL of a 10% S-9 solution containing Aroclor 1254 induced rat liver extract (Molecular Toxicology Inc., Annapolis, Md.), and MgCl2, KCl, glucose-6-phosphate, NADP, and sodium phosphate buffer (Sigma, St. Louis, Mo.) were added. To the other half of the tubes 0.5 mL of 0.2M sodium phospate buffer, pH 7.4, was used in place of the S-9 mixture (the -S9 samples). Finally 0.1 mL of the test solution containing either 0, 0.1, 0.5, 1, 5, 10, 50, 100, 250, or 500 μg/mL of the test compound was added. […] After incubation the number of revertant colonies on each plate were counted. […]
A general note: The Ames test detects mutagens through reverse mutation in bacteria.

In a further series the test system is HIV-1. The following applies: concentrations of 64 μM of compound or higher.
Series [2] relates to Salmonella typhimurium TA1538. Kind of series: Ames assay (dark mutagenicity), strain TA1538.
Excerpt: as §1, §2, §3
(§4) For all experiments, the pre-incubation procedure was used. In this procedure one vial of each tester strain was thawed and 20 μL of this culture was added to 6 mL of Oxoid Nutrient Broth #2. This solution was allowed to shake for 10 hours at 37° C. In the pre-incubation procedure, 0.1 mL of this overnight culture was added to each of the required number of sterile test tubes. To half of the tubes 0.5 mL of a 10% S-9 solution containing Aroclor 1254 induced rat liver extract (Molecular Toxicology Inc., Annapolis, Md.), and MgCl2, KCl, glucose-6-phosphate, NADP, and sodium phosphate buffer (Sigma, St. Louis, Mo.) were added. To the other half of the tubes 0.5 mL of 0.2M sodium phospate buffer, pH 7.4, was used in place of the S-9 mixture (the -S9 samples). Finally 0.1 mL of the test solution containing either 0, 0.1, 0.5, 1, 5, 10, 50, 100, 250, or 500 μg/mL of the test compound was added. The 0.7 mL mixture was vortexed and then pre-incubated while shaking for 20 minutes at 37° C. After shaking, 2 mL of molten top agar supplemented with histidine and biotin were added to the 0.7 mL mixture and immediately poured onto a minimal glucose agar plate (volume of base agar was 20 mL). The top agar was allowed 30 minutes to solidify and then the plates were inverted and incubated for 44 hours at 37° C. After incubation the number of revertant colonies on each plate were counted. […] (“n” represents the number of replicates performed for each data point.)
(§5) Maron and Ames (1983) describe the conflicting views with regard to the statisical treatment of data generated from the test.

Series [3] has as its system Salmonella typhimurium TA100.
Excerpt: as §1, §2, §3, §4, §5

Molecules are shown by their SMILES. Where two headings read alike, the source gives them in different places.

Method for HIV-1: Pathogen inactivation efficiency of several compounds of the present invention was evaluated by examining the ability of the compounds to inactivate cell-free virus (HIV). Inactivation of cell-free HIV was performed as follows.
As in the R17 assay, small aliquots of the compounds listed in TABLES 10 and 11, below, at the concentrations listed in the table, were added to stock HIV-1 to a total of 0.5 mL. The stock HIV (10^5-10^7 plaque forming units/mL) was in DMEM/15% FBS. […] Controls included HIV-1 stock only, HIV-1 plus UVA only, and HIV-1 plus the highest concentration of each psoralen tested, with no UVA. Post irradiation, all samples were stores frozen at −70° C. until assayed for infectivity by a microtiter plaque assay. Aliquots for measurement of residual HIV infectivity in the samples treated with a compound of the present invention were withdrawn and cultured.
Residual HIV infectivity was assayed using an MT-2 infectivity assay. […] After 24 to 48 hours, the red fluorescence-stained microplaques were visualized by placing the plates on an 8,000 μW/cm^2 304 nm UV light box (Fotodyne, Inc., New Berlin, Wis.). The plaques were counted at a magnification of ×20 to ×25 through a stereomicroscope.

`Cc1oc2c(C)c3oc(=O)cc(C)c3cc2c1CCN` [Compound 3, 4′-(2-aminoethyl)-4,5′,8-trimethylpsoralen]: in series [1], the “mutagenicity (overall)” value was “no mutagenicity”. In addition, the “HIV inactivation activity compared with AMT” value in the series with HIV-1 is recorded as “significantly more active than AMT”. The revertants per plate in series [2] (TA1538 −S9, 5 μg/plate) was 0; in series [2] (TA1538 −S9, 10 μg/plate), −6; in series [3] (TA100 +S9, 5 μg/plate) it was −19; in series [3] (TA100 +S9, 10 μg/plate) it was 8.
